Patent US4147797A, “Spiro-furanohydantoin derivatives” (Pfizer Inc., priority 1978, dated 1979)

Experiments:
[1] = target: T1, aldose reductase (Bos taurus, UniProt P16116); experiment: inhibition of aldose reductase enzyme activity (partially purified enzyme from calf lens); type: biochemical; details: read-out: 50% Inhibitory Concentration
T1 construct: partially purified aldose reductase enzyme obtained from calf lens; from tissue; host or cells: calf lens
Excerpt: The activity of the compounds of the present invention as agents for the control of chronic diabetic complications may be determined by a number of standard biological or pharmacological tests. Suitable tests include (1) measuring their ability to inhibit the enzyme activity of isolated aldose reductase and (2) measuring their ability to reduce or inhibit sorbitol accumulation in the sciatic nerve of acutely streptozotocinized (i.e., diabetic) rats. […] Pat. No. 3,821,383 and based on the procedure on Hayman et. al., Journal of Biological Chemistry, 240, 877 (1965). The substrate employed was partially purified aldose reductase enzyme obtained from calf lens.

[2] = system: sorbitol accumulation in the sciatic nerve of streptozotocinized (i.e., diabetic) rats; experiment: inhibition of sorbitol accumulation in the sciatic nerve of streptozotocinized (diabetic) rats; type: in vivo; details: 25 mg/kg oral at 4, 8 and 24 hours after streptozotocin; sorbitol measured 27 hours after induction of diabetes; compared to untreated animals
Description: The activity of the compounds of the present invention as agents for the control of chronic diabetic complications may be determined by a number of standard biological or pharmacological tests. Suitable tests include (1) measuring their ability to inhibit the enzyme activity of isolated aldose reductase and (2) measuring their ability to reduce or inhibit sorbitol accumulation in the sciatic nerve of acutely streptozotocinized (i.e., diabetic) rats.
The compounds of Examples 1 and 2 were tested for their ability to reduce or inhibit sorbitol accumulation in the sciatic nerve of streptozotocinized (i.e., diabetic) rats by the procedure essentially described in U.S. Pat. No. 3,821,383. In the present study, the amount of sorbitol accumulation in the sciatic nerves was measured 27 hours after induction of diabetes. The compounds were administered orally at the dose levels indicated at 4, 8 and 24 hours following the administration of streptozotocin. The results obtained in this manner are presented as the percent inhibition (%) obtained at a 25 mg/kg dose compared to the untreated animal standard (i.e., the untreated animal where sorbitol levels normally rise from approximately 50-100 mM/g. tissue to as high as 400 mM/g. tissue in the 27-hour test period): […]

Compound | IC50 [1] [µM] | Percent Inhibition at 25 mg/kg [2] [%]
O=C1NC(=O)C2(CCCc3occc32)N1 (stereo not shown) [Example 1, Spiro[cyclohexa(b)furan-4,4'-imidazolidine]-2',5'-dione] | 100 | 46
Cc1cc2c(o1)CCCC21NC(=O)NC1=O (stereo not shown) [Example 2, 2-methyl-spiro[cyclohexa(b)furan-4,4'-imidazolidine]-2',5'-dione] | 100 | 2
